Test results reported in ChEMBL document CHEMBL1128749, “1-Aminoindan-1,5-dicarboxylic acid: a novel antagonist at phospholipase C-linked metabotropic glutamate receptors” (J Med Chem, 1995).

Key:
[1] = target: T1, Metabotropic glutamate receptor 1 (Homo sapiens, UniProt Q13255); test: Ability to inhibit mGluR1-alpha-mediated PI (phospho inositol) hydrolysis was determined at BHK cells at 100 Micro M Concentration; Not effective at the highest concentration tested (100 uM); assay type: functional, cell-based, Mesocricetus auratus
[2] = target: T2, Metabotropic glutamate receptor 4 (Homo sapiens, UniProt Q14833); test: Ability to inhibit mGluR4-alpha induced cAMP formation was determined at BHK cells at 100 Micro M Concentration; Not effective at the highest concentration tested (100 uM); assay type: functional, cell-based, Mesocricetus auratus
[3] = target: T3, Metabotropic glutamate receptor 2 (Homo sapiens, UniProt Q14416); test: Ability to inhibit mGluR2-alpha induced cAMP formation was determined at BHK cells at 100 Micro M Concentration; Not effective at the highest concentration tested (100 uM); assay type: functional, cell-based, Mesocricetus auratus
[4] = target: T1, Metabotropic glutamate receptor 1; test: Ability to inhibit mGluR1-alpha-mediated PI (phospho inositol) hydrolysis was determined at BHK cells at 100 Micro M Concentration; assay type: functional, cell-based, Mesocricetus auratus
[5] = target: T3, Metabotropic glutamate receptor 2; test: Ability to inhibit mGluR2-alpha induced cAMP formation was determined at BHK cells at 100 Micro M Concentration; assay type: functional, cell-based, Mesocricetus auratus
[6] = target: T2, Metabotropic glutamate receptor 4; test: Ability to inhibit mGluR4-alpha induced cAMP formation was determined at BHK cells at 100 Micro M Concentration; assay type: functional, cell-based, Mesocricetus auratus
[7] = target: T3, Metabotropic glutamate receptor 2; test: Ability to inhibit mGluR2-alpha induced cAMP formation was determined at BHK cells at 100 Micro M Concentration; Not effective at the highest concentration tested (100 µM)

T2 sequence (Q14833 whole entry): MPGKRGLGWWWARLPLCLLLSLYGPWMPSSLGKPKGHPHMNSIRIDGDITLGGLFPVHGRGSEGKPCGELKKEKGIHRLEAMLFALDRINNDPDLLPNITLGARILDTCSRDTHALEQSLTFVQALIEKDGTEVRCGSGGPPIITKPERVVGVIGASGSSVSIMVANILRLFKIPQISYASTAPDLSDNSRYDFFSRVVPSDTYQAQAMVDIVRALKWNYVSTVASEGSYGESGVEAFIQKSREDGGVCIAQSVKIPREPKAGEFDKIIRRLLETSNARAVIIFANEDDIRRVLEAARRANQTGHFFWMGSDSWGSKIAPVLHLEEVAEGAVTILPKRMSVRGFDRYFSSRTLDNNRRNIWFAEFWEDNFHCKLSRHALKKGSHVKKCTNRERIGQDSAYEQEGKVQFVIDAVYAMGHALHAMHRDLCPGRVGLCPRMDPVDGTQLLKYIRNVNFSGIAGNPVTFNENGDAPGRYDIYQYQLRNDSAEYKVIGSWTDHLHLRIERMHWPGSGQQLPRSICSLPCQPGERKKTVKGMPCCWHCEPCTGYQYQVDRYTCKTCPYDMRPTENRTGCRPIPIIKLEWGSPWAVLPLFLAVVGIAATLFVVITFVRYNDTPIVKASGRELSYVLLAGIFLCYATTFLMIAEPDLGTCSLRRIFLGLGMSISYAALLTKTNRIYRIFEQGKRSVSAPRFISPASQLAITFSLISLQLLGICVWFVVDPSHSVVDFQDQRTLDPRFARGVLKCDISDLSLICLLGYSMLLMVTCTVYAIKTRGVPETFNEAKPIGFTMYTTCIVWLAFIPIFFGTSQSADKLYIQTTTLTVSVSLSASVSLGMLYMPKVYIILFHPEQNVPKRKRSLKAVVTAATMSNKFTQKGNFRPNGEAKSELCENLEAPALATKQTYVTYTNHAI
T3 sequence (Q14416 whole entry): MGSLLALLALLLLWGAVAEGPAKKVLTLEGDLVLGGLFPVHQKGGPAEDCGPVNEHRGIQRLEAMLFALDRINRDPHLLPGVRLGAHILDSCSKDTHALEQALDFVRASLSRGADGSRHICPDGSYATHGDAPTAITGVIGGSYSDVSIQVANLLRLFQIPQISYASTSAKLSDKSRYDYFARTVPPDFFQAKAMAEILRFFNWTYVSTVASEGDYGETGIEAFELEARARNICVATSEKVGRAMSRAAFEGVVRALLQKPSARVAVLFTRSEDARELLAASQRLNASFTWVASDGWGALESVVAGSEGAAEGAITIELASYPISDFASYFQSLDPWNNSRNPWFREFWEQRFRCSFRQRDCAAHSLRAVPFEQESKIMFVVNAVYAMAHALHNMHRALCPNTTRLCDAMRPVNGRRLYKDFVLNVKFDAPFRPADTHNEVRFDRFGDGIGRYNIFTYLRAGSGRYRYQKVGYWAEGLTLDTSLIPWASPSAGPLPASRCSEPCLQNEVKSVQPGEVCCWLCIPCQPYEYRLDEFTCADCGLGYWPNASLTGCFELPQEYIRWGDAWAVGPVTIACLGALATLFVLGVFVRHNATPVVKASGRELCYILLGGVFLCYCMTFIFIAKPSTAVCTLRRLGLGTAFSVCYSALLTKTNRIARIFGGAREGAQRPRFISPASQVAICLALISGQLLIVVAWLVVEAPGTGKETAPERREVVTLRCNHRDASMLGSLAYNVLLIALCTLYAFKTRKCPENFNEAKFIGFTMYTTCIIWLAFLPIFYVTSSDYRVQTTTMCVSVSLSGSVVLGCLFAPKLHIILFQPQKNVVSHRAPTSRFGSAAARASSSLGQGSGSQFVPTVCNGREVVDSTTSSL
T1 sequence (Q13255 whole entry): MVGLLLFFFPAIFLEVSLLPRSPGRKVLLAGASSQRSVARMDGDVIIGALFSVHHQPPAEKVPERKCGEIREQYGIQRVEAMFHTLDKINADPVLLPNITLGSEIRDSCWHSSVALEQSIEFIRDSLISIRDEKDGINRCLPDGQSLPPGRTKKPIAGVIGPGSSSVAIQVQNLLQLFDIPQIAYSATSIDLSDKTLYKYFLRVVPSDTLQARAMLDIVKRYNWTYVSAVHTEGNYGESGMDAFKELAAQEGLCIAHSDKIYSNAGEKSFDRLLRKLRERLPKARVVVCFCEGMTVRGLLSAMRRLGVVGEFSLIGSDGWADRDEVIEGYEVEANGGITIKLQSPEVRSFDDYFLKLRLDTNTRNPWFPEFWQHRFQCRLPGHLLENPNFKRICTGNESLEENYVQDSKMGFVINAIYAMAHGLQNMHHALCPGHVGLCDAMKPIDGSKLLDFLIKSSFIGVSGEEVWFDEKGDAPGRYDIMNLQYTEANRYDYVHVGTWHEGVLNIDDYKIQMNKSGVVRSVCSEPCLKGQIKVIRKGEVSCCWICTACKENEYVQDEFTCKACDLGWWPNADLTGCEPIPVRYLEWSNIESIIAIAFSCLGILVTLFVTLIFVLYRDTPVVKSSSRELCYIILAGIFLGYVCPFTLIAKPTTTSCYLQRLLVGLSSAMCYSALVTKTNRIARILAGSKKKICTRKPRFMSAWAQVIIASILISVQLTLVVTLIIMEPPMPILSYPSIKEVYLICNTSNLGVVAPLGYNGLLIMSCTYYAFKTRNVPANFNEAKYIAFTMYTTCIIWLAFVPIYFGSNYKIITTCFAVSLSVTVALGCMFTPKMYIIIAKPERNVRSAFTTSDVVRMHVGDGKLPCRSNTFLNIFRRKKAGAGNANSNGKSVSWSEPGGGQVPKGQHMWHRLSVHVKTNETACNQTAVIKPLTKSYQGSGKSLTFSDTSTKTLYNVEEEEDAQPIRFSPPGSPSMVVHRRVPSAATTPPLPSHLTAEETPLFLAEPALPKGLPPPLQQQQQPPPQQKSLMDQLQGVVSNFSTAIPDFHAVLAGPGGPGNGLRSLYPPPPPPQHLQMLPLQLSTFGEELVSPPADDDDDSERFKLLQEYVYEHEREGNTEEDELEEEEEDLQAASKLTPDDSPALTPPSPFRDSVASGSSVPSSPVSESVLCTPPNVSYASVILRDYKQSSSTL

| SMILES | IC50 [1] | IC50 [2] | IC50 [3] | IC50 [4] | IC50 [5] | IC50 [6] | IC50 [7] |
| --- | --- | --- | --- | --- | --- | --- | --- |
| CC(N)(C(=O)O)c1ccc(C(=O)O)cc1 (stereo not drawn) | – | – | – | 155 µM | 340 µM | > 1000 µM | – |
| NC(C(=O)O)c1ccc(C(=O)O)cc1 (stereo not drawn) | – | – | – | 65 µM | 577 µM | > 1000 µM | – |
| NC(C(=O)O)c1ccc(C(=O)O)c(O)c1 (stereo not drawn) | – | – | – | 40 µM | 48 µM | > 1000 µM | – |

Next, values leading:

| IC50 [1] | IC50 [2] | IC50 [3] | IC50 [4] | IC50 [5] | IC50 [6] | IC50 [7] | SMILES |
| --- | --- | --- | --- | --- | --- | --- | --- |
| No effect | No effect | No effect | – | – | – | – | NC1(C(=O)O)CCc2c(C(=O)O)cccc21 (stereo not drawn) |
| – | No effect | No effect | 7 µM | – | – | – | NC1(C(=O)O)CCc2cc(C(=O)O)ccc21 (stereo not drawn) |
| No effect | No effect | – | – | – | – | No effect | NC1(C(=O)O)CCc2ccc(C(=O)O)cc21 (stereo not drawn) |
